Results taken from ChEMBL document CHEMBL1201862, “PubChem BioAssay data set” (2004).
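Test compounds were applied to cells in 96-well plates for 48 hours at 5 doses. At the GI50, growth is halved.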 Calls of active or inactive are those of the source. Rule as the data show it: active = GI50 up to about 1.1 µM and inactive = higher.

How the values were obtained:
Experiment in all cases: NCI-60 cell line screen, 48 h
[1] = tested on: MDA-MB-435
[2] = tested on: SNB-19
[3] = tested on: OVCAR-8
[4] = tested on: OVCAR-3
[5] = tested on: K562
[6] = tested on: HT-29
[7] = tested on: HCT-116
[8] = tested on: 786-0
[9] = tested on: MOLT-4
[10] = tested on: OVCAR-4
[11] = tested on: SF-295
[12] = tested on: RXF 393
[13] = tested on: HCT-15
[14] = tested on: NCI/ADR-RES
[15] = tested on: LOX IMVI
[16] = tested on: MCF7
[17] = tested on: CAKI-1
[18] = tested on: SF-539
[19] = tested on: MDA-MB-231
[20] = tested on: DU-145

SMILES | GI50 [1] | GI50 [2] | GI50 [3] | GI50 [4] | GI50 [5] | GI50 [6] | GI50 [7] | GI50 [8] | GI50 [9] | GI50 [10] | GI50 [11] | GI50 [12] | GI50 [13] [µM] | GI50 [14] | GI50 [15] | GI50 [16] | GI50 [17] | GI50 [18] | GI50 [19] | GI50 [20]
CC(/C=N/N=C1NCCCCN1)=N\N=C1NCCCCN1 | 47.9 µM (inactive) | > 100 µM (inactive) | > 100 µM (inactive) | > 100 µM (inactive) | 37.1 µM (inactive) | 84.1 µM (inactive) | 86.3 µM (inactive) | > 100 µM (inactive) | 87.3 µM (inactive) | > 100 µM (inactive) | 47.2 µM (inactive) | > 100 µM (inactive) | > 100 | > 100 µM (inactive) | 16.7 µM (inactive) | 64.9 µM (inactive) | > 100 µM (inactive) | > 100 µM (inactive) | > 100 µM (inactive) | –
COc1cc(C(C)c2cc3c(cc2OCCN)OCO3)cc(OC)c1OC (centres undefined) | – | 54.8 µM (inactive) | > 100 µM (inactive) | > 100 µM (inactive) | > 100 µM (inactive) | > 100 µM (inactive) | > 100 µM (inactive) | > 100 µM (inactive) | 10.9 µM (inactive) | > 100 µM (inactive) | > 100 µM (inactive) | 21.8 µM (inactive) | > 100 | – | > 100 µM (inactive) | – | > 100 µM (inactive) | > 100 µM (inactive) | – | –
CN(CCc1ccccn1)c1nc(=[N+](C)C)ss1 | – | > 100 µM (inactive) | > 100 µM (inactive) | 66.8 µM (inactive) | > 100 µM (inactive) | 38.5 µM (inactive) | – | > 100 µM (inactive) | > 100 µM (inactive) | > 100 µM (inactive) | 56.1 µM (inactive) | > 100 µM (inactive) | > 100 | – | > 100 µM (inactive) | – | > 100 µM (inactive) | > 100 µM (inactive) | – | –
Cn1c(C2CCCc3c2c2ccccc2n3C)cc2ccccc21 (centres undefined) | – | > 318 µM (inactive) | > 318 µM (inactive) | 36.2 µM (inactive) | 74 µM (inactive) | 83 µM (inactive) | 142 µM (inactive) | > 318 µM (inactive) | 89.5 µM (inactive) | – | 70 µM (inactive) | 95.1 µM (inactive) | 43.1 | – | 130 µM (inactive) | – | 115 µM (inactive) | > 318 µM (inactive) | – | –
CCOC(=O)CCC(NC(=O)OCc1ccccc1)C(=O)NC(CCC(=O)OCC)C(=O)NC(CCC(=O)OCC)C(=O)NNC(=O)OC(C)(C)C (centres undefined) | – | > 100 µM (inactive) | > 100 µM (inactive) | – | > 100 µM (inactive) | > 100 µM (inactive) | > 100 µM (inactive) | > 100 µM (inactive) | > 100 µM (inactive) | – | – | > 100 µM (inactive) | > 100 | – | – | > 100 µM (inactive) | – | – | > 100 µM (inactive) | –
COC(=O)/C(C#N)=C1\CCC(O)N1 (centres undefined) | – | > 100 µM (inactive) | > 100 µM (inactive) | > 100 µM (inactive) | > 100 µM (inactive) | > 100 µM (inactive) | > 100 µM (inactive) | > 100 µM (inactive) | > 100 µM (inactive) | > 100 µM (inactive) | > 100 µM (inactive) | > 100 µM (inactive) | – | – | > 100 µM (inactive) | – | > 100 µM (inactive) | > 100 µM (inactive) | – | –
C/C(=N/NC(N)=S)C(CN(C)C)C(C1=C(O)c2ccccc2OC1)c1ccccc1 (centres undefined) | – | > 100 µM (inactive) | > 100 µM (inactive) | > 100 µM (inactive) | > 100 µM (inactive) | > 100 µM (inactive) | > 100 µM (inactive) | > 100 µM (inactive) | > 100 µM (inactive) | > 100 µM (inactive) | > 100 µM (inactive) | > 100 µM (inactive) | > 100 | – | > 100 µM (inactive) | – | > 100 µM (inactive) | > 100 µM (inactive) | – | –
COc1cc2ccnc([C@@H](OC(=O)c3ccccc3)c3ccc(OC)c(OC)c3OC)c2cc1OC | – | 53.1 µM (inactive) | 51.9 µM (inactive) | 27.8 µM (inactive) | 26.7 µM (inactive) | 37.7 µM (inactive) | 33.9 µM (inactive) | 35.6 µM (inactive) | 41.6 µM (inactive) | 31 µM (inactive) | 21.2 µM (inactive) | 26.9 µM (inactive) | 42.4 | – | 39.1 µM (inactive) | – | 30.3 µM (inactive) | 47.5 µM (inactive) | – | –
CC(SC(=S)Nc1cccc(F)c1)C(=O)O (centres undefined) | – | 29.4 µM (inactive) | 25.5 µM (inactive) | 27.4 µM (inactive) | 15.6 µM (inactive) | 30.5 µM (inactive) | 19.2 µM (inactive) | 34.4 µM (inactive) | 17.5 µM (inactive) | > 100 µM (inactive) | 23.9 µM (inactive) | 14.2 µM (inactive) | 26.1 | – | 16.1 µM (inactive) | – | 45.8 µM (inactive) | 18.3 µM (inactive) | – | –
Cc1c(C(=O)C/C(=N\O)C(=O)Nc2cc(Cl)c(Cl)cc2Cl)[n+]([O-])c2ccccc2[n+]1[O-] | – | 36.1 µM (inactive) | 8.91 µM (inactive) | 2.37 µM (inactive) | 25.9 µM (inactive) | 15.2 µM (inactive) | 4.85 µM (inactive) | 22.2 µM (inactive) | 13.3 µM (inactive) | 9.53 µM (inactive) | 25.9 µM (inactive) | 22.5 µM (inactive) | 8.17 | – | 6.65 µM (inactive) | – | 34 µM (inactive) | 14.3 µM (inactive) | – | –
Cc1cc(OC(=O)Nc2cccc3ccccc23)c(C(C)C)cc1C(=S)Nc1ccccc1 | 18.1 µM (inactive) | 27.2 µM (inactive) | 12.7 µM (inactive) | 16.1 µM (inactive) | 5.77 µM (inactive) | 18.7 µM (inactive) | 17.8 µM (inactive) | 23.4 µM (inactive) | 11.4 µM (inactive) | 11 µM (inactive) | 0.0608 µM (active) | – | 10.9 | 16.6 µM (inactive) | 14.7 µM (inactive) | 17.4 µM (inactive) | 22.1 µM (inactive) | 16.7 µM (inactive) | – | 22.3 µM (inactive)
NS(=O)(=O)c1nc(S(=O)(=O)O)c2[nH]cnc2n1 | > 100 µM (inactive) | > 100 µM (inactive) | > 100 µM (inactive) | > 100 µM (inactive) | > 100 µM (inactive) | > 100 µM (inactive) | > 100 µM (inactive) | > 100 µM (inactive) | 29 µM (inactive) | > 100 µM (inactive) | > 100 µM (inactive) | > 100 µM (inactive) | > 100 | > 100 µM (inactive) | > 100 µM (inactive) | > 100 µM (inactive) | > 100 µM (inactive) | > 100 µM (inactive) | > 100 µM (inactive) | –
N=c1c2ccccc2sc2nc3ccccc3n12 | – | > 100 µM (inactive) | > 100 µM (inactive) | – | > 100 µM (inactive) | > 100 µM (inactive) | – | 97.5 µM (inactive) | > 100 µM (inactive) | 33.9 µM (inactive) | > 100 µM (inactive) | > 100 µM (inactive) | – | – | > 100 µM (inactive) | – | 48.6 µM (inactive) | > 100 µM (inactive) | – | –
Nc1ccc2n[se]nc2c1 | – | > 100 µM (inactive) | > 100 µM (inactive) | – | > 100 µM (inactive) | > 100 µM (inactive) | > 100 µM (inactive) | > 100 µM (inactive) | > 100 µM (inactive) | > 100 µM (inactive) | > 100 µM (inactive) | > 100 µM (inactive) | > 100 | – | 29.6 µM (inactive) | – | > 100 µM (inactive) | > 100 µM (inactive) | – | –
OCCSCC/C(=N\N=C(/CCSCCO)c1ccccc1)c1ccccc1 | – | > 100 µM (inactive) | 89.5 µM (inactive) | > 100 µM (inactive) | 29.9 µM (inactive) | 52 µM (inactive) | – | 46.2 µM (inactive) | 77.4 µM (inactive) | 61.4 µM (inactive) | 34.4 µM (inactive) | 36.2 µM (inactive) | > 100 | – | 93.8 µM (inactive) | – | 32.1 µM (inactive) | > 100 µM (inactive) | – | –
COc1ccc(N2C(=O)C3c4[nH]c5ccc(OC)cc5c4C4CCC(C(C)(C)C)CC4C3C2=O)cc1 (centres undefined) | – | 46.3 µM (inactive) | 25 µM (inactive) | 92.3 µM (inactive) | 23.1 µM (inactive) | 32.5 µM (inactive) | 10.5 µM (inactive) | 16.8 µM (inactive) | 28.6 µM (inactive) | 4.71 µM (inactive) | 9.51 µM (inactive) | 16.1 µM (inactive) | > 100 | – | 34.2 µM (inactive) | – | 42.6 µM (inactive) | 12.8 µM (inactive) | – | –
Cc1cc(OCC(=O)N/N=C/C(Br)=C/c2ccccc2)nc(SCC(=O)N/N=C/C(Br)=C/c2ccccc2)n1 | > 100 µM (inactive) | > 100 µM (inactive) | – | > 100 µM (inactive) | > 100 µM (inactive) | > 100 µM (inactive) | > 100 µM (inactive) | 34.8 µM (inactive) | – | 42 µM (inactive) | > 100 µM (inactive) | 49.1 µM (inactive) | > 100 | 53.6 µM (inactive) | > 100 µM (inactive) | 75.7 µM (inactive) | > 100 µM (inactive) | – | – | 58.3 µM (inactive)
COC1[C@H](NC(=O)OC(C)(C)C)C(=O)N1Cc1ccccc1 (some centres undefined) | – | > 100 µM (inactive) | > 100 µM (inactive) | > 100 µM (inactive) | > 100 µM (inactive) | > 100 µM (inactive) | > 100 µM (inactive) | > 100 µM (inactive) | > 100 µM (inactive) | > 100 µM (inactive) | > 100 µM (inactive) | > 100 µM (inactive) | > 100 | – | > 100 µM (inactive) | – | – | > 100 µM (inactive) | – | –
